Test [1] relates to Walker carcinoma cells. Nature of the test: Inhibition of multiplication of Walker cells (cell proliferation), single active material or combination, Chou and Talalay analysis. It counts as cell-based, rat.
Description: Dose-action curves for individual active materials or active material combinations were obtained by the addition of corresponding active materials to a suspension of Walker cells (10^5 cells/ml.). After an incubation time of 48 hours, the cells were counted with the help of an electronic counter (Coulter Electronics, Luton, U.K.). The multiplication of the cells (M) was calculated according to the following formula:
in which C stands for the untreated control cells, T signifies the number of treated cells and the indices 0 and t indicate the number of the cells at the time point 0 and after 48 h.
The data used for the calculation originated from at least three different experiments.
For test [2], the target named is protein kinase C. Briefly: Inhibition of protein kinase C (PK-C): in vitro method, 32P incorporation into H1 histone. The format is biochemical, rat. How it is done: b) Inhibition of protein kinase C (PK-C): in vitro method.
However, to the extracts was additionally added 1 mM phenylmethanesulphonyl chloride, 20 μg./ml. leupeptin and 2 μg./ml. aprotinin. […] 1,2-s,n-diolein. The reaction time was 10 minutes at 32° C. The enzyme reaction was stopped by the addition of 1 ml. 20% trichloroacetic acid (w/v). The protein was precipitated out on Whatman GF/F filter paper and counted with the help of a liquid scintillation counter.
Quercetin was solubilised in dimethyl sulphoxide (DMSO). For the batch mixing, the solution in DMSO was made up to a DMSO end concentration of 1%. An equivalent amount of pure DMSO was added to the control groups. The influence of quercetin on the cell multiplication was investigated by the addition of the active material in DMSO to the culture medium up to an end concentration of 0.1%. The cells were cultured in the presence of the active material for 48 hours. The control group only received pure DMSO.

Test [3] deals with Meth A-fibrosarcoma cells. Nature of the test: [3H]-Thymidine incorporation, inhibition of tumour cell proliferation. It counts as cell-based. The conditions noted are these: Table 2; ilmofosin alone; read-out: IC50, inhibition of tumour cell proliferation, single active material. The protocol:
b) [3H]-Thymidine incorporation.
The cytostatic or cytotoxic effect of the active materials or active material combinations on Meth A-fibrosarcoma cells was investigated in vitro on the basis of the reduced incorporation of [3H]-thymidine. The cells were suspended in DMEM, 10% FCS, 50 μM 2-mercaptoethanol, 100 U/ml. penicillin and 100 μg./ml. streptomycin up to an end concentration of 5×10^4 /ml. in the absence of the active materials. The active materials were added to the cells in an end volume of 20 μl. Per concentration, 6 cultures of 0.2 ml. were used and incubated in microtitre plates in a moist atmosphere. The cultures were pulsed for 3 hours with 1 μCi […] [methyl-^3 H]-thymidine(specific activity 5 Ci/mmol). The samples were subsequently collected and washed several times. The filter plates used were dried and transferred to scintillation test tubes. The radio-active incorporation was measured by the addition of Rotiscint.
The IC50 values for a combination of ilmofosin with CDDP or doxorubicin were determined in the manner described above in Example 7b).

Where [4] appears, read: Rattus norvegicus, 48 h; read-out: IC50 cell proliferation in combination with cis-DDP.
Setting [5] is: Table 1, 50% inhibition of the protein kinase C, read-out: inhibition of the protein kinase C IC50.
Where [6] appears, read: protein kinase C enriched from Walker cells, 10 minutes at 32° C., pH 7.4, read-out: IC50, inhibition of protein kinase C (Examples 2-6).
Setting [7] is: combination of the inhibitor with cis-DDP, 48 hours; method of Chou and Talalay.
Where [8] appears, read: Rattus norvegicus, 48 h, read-out: IC50 cell proliferation.
The mark [9] stands for this setting: Rattus norvegicus, 48 h, read-out: IC50 cell proliferation in combination with cis-DDP.

Structures are written as SMILES. Read-outs that look alike come from different tables or passages of the source.

Turning to `CCCCCCCCCCCCCCCCCCOCC(COP(=O)([O-])OCC[N+](C)(C)C)OC` (stereo not drawn) [ET-18-OCH3, 4-hydroxy-7-methoxy-N,N,N-trimethyl-3,5,9-trioxa-4-phosphaheptacosan-1-aminium 4-oxide], the IC50 in test [1] (setting [4]) came to 1.7 µM; in test [1] (Rattus norvegicus; Table 1; single active material, 48 hours; read-out: IC50 cell proliferation), 5.8 µM.

Take `N.N.[Cl][Pt][Cl]` [cis-DDP, cis-diammine-dichloroplatinum (II)]: the IC50 in test [2] (setting [5]) is above 1000 µM; in test [1] (Table 1; single active material, 48 hours; read-out: IC50 cell proliferation) it was 0.23 µM.

As to `CCCCCCCCCCCCCCCCSCC(COC)COP(=O)([O-])OCC[N+](C)(C)C` (stereo not drawn) [ilmofosin], the IC50 in test [3] turned out to be 1.06 µg/mL; in test [2] (setting [5]), 0.56 µM; in test [2] (setting [6]), 20 µM; in test [1] (setting [4]) it was 2 µM. For the same compound, the “nature of the activity” value in test [1] (setting [7]) was “synergism”.

In the case of `O=c1c(O)c(-c2ccc(O)c(O)c2)oc2cc(O)cc(O)c12` [quercetin, 3,3',4',5,7-pentahydroxyflavone], the IC50 turned out to be 25 µM in test [2] (setting [5]), 25 µM in test [2] (setting [6]), 23 µM in test [1] (setting [8]) and 3.8 µM in test [1] (setting [9]). Further, in test [1] (setting [7]), the “nature of the activity” value is listed as “synergism”.

Consider `CN[C@@H]1C[C@H]2O[C@@](C)([C@@H]1OC)n1c3ccccc3c3c4c(c5c6ccccc6n2c5c31)C(=O)NC4` [staurosporin], for which the IC50 came out at 0.4 µM in test [1] (setting [8]) and 0.004 µM in test [1] (setting [9]). In addition, the “nature of the activity” value in test [1] (setting [7]) is reported as “synergism”.

Take `CC/C(=C(\c1ccccc1)c1ccc(OCCN(C)C)cc1)c1ccccc1` [tamoxifen]: the “nature of the activity” value in test [1] (setting [7]) is on record as “synergism”.

The values above are taken from patent publication US5770593A, “Method of determining a pharmaceutical combination preparations for use in anti-neoplastic therapy” (Boehringer Mannheim GmbH, priority 1988, dated 1998).
